PubChem BioAssay (NCI)
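Step 1: Grow cells in 96-well plates. Step 2: Expose to compound for 48 hours at 5 concentrations. Step 3: Interpolate endpoints linearly; if unreached, use highest concentration. The concentration for full growth arrest is given as TGI.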

tested on: OVCAR-3 ovarian; assay: NCI-60 cell line screen, 48 h

Cc1ccc(N=Nc2c(C)nn(-c3ccccc3)c2C)c(Br)c1 and CCOC(=O)[C@]12C3C=CC(C3)C1C(=O)C1OC12 (some centres not stated) cannot be ordered by TGI: over 100 µM for the first, over 100 µM for the second.

tested on: SF-295 CNS; assay: NCI-60 cell line screen, 48 h

Going from [O-][n+]1c(-c2ccccc2)oc2ccccc21 to Cc1ccc(N=Nc2c(C)nn(-c3ccccc3)c2C)c(Br)c1, the TGI rises from 27.6 µM to over 100 µM.

Cc1cccc(C)c1NC(=O)CCC(=O)NNc1nnc(C)n1N and CCOC(=O)[C@]12C3C=CC(C3)C1C(=O)C1OC12 (some centres not stated) cannot be ordered by TGI: over 100 µM for the first, over 100 µM for the second.

tested on: RPMI-8226 leukemia; assay: NCI-60 cell line screen, 48 h

[O-][n+]1c(-c2ccccc2)oc2ccccc21 and Cc1ccc(N=Nc2c(C)nn(-c3ccccc3)c2C)c(Br)c1 cannot be ordered by TGI: over 69.2 µM for the first, over 100 µM for the second.

Cc1cccc(C)c1NC(=O)CCC(=O)NNc1nnc(C)n1N and CCOC(=O)[C@]12C3C=CC(C3)C1C(=O)C1OC12 (some centres not stated) cannot be ordered by TGI: over 100 µM for the first, over 100 µM for the second.

tested on: HCT-116 colon; assay: NCI-60 cell line screen, 48 h

Going from [O-][n+]1c(-c2ccccc2)oc2ccccc21 to Cc1ccc(N=Nc2c(C)nn(-c3ccccc3)c2C)c(Br)c1, the TGI rises from 41.9 µM to over 100 µM.

Cc1cccc(C)c1NC(=O)CCC(=O)NNc1nnc(C)n1N and CCOC(=O)[C@]12C3C=CC(C3)C1C(=O)C1OC12 (some centres not stated) cannot be ordered by TGI: over 100 µM for the first, over 100 µM for the second.

tested on: NCI-H522 lung; assay: NCI-60 cell line screen, 48 h

Compared with [O-][n+]1c(-c2ccccc2)oc2ccccc21, Cc1cccc(C)c1NC(=O)CCC(=O)NNc1nnc(C)n1N is higher in TGI: 17.5 µM for the first, over 100 µM for the second.

CCOC(=O)[C@]12C3C=CC(C3)C1C(=O)C1OC12 (some centres not stated) showed a TGI of over 100 µM.

tested on: M19-MEL melanoma; assay: NCI-60 cell line screen, 48 h

First: [O-][n+]1c(-c2ccccc2)oc2ccccc21
Second: Cc1ccc(N=Nc2c(C)nn(-c3ccccc3)c2C)c(Br)c1
The TGI of the first is lower: 3.59 µM for the first, over 100 µM for the second.

Cc1cccc(C)c1NC(=O)CCC(=O)NNc1nnc(C)n1N and CCOC(=O)[C@]12C3C=CC(C3)C1C(=O)C1OC12 (some centres not stated) cannot be ordered by TGI: over 100 µM for the first, over 100 µM for the second.

tested on: UO-31 renal; assay: NCI-60 cell line screen, 48 h

Compared with [O-][n+]1c(-c2ccccc2)oc2ccccc21, Cc1cccc(C)c1NC(=O)CCC(=O)NNc1nnc(C)n1N is higher in TGI: 40.3 µM for the first, over 100 µM for the second.

Work on CCOC(=O)[C@]12C3C=CC(C3)C1C(=O)C1OC12 (some centres not stated) yielded a TGI of over 100 µM.

tested on: OVCAR-4 ovarian; assay: NCI-60 cell line screen, 48 h

[O-][n+]1c(-c2ccccc2)oc2ccccc21 and Cc1ccc(N=Nc2c(C)nn(-c3ccccc3)c2C)c(Br)c1 cannot be ordered by TGI: over 68 µM for the first, over 100 µM for the second.

Cc1cccc(C)c1NC(=O)CCC(=O)NNc1nnc(C)n1N and CCOC(=O)[C@]12C3C=CC(C3)C1C(=O)C1OC12 (some centres not stated) cannot be ordered by TGI: over 100 µM for the first, over 100 µM for the second.

tested on: XF 498 CNS; assay: NCI-60 cell line screen, 48 h

[O-][n+]1c(-c2ccccc2)oc2ccccc21 and Cc1ccc(N=Nc2c(C)nn(-c3ccccc3)c2C)c(Br)c1 cannot be ordered by TGI: over 100 µM for the first, over 100 µM for the second.

Cc1cccc(C)c1NC(=O)CCC(=O)NNc1nnc(C)n1N and CCOC(=O)[C@]12C3C=CC(C3)C1C(=O)C1OC12 (some centres not stated) cannot be ordered by TGI: over 100 µM for the first, over 100 µM for the second.

tested on: MOLT-4 leukemia; assay: NCI-60 cell line screen, 48 h

[O-][n+]1c(-c2ccccc2)oc2ccccc21 and Cc1ccc(N=Nc2c(C)nn(-c3ccccc3)c2C)c(Br)c1 cannot be ordered by TGI: over 100 µM for the first, over 100 µM for the second.

Cc1cccc(C)c1NC(=O)CCC(=O)NNc1nnc(C)n1N and CCOC(=O)[C@]12C3C=CC(C3)C1C(=O)C1OC12 (some centres not stated) cannot be ordered by TGI: over 100 µM for the first, over 100 µM for the second.

tested on: M14 melanoma; assay: NCI-60 cell line screen, 48 h

Going from [O-][n+]1c(-c2ccccc2)oc2ccccc21 to Cc1ccc(N=Nc2c(C)nn(-c3ccccc3)c2C)c(Br)c1, the TGI rises from 24.8 µM to over 100 µM.

For Cc1cccc(C)c1NC(=O)CCC(=O)NNc1nnc(C)n1N, the TGI was over 100 µM.

tested on: TK-10 renal; assay: NCI-60 cell line screen, 48 h

Going from [O-][n+]1c(-c2ccccc2)oc2ccccc21 to Cc1ccc(N=Nc2c(C)nn(-c3ccccc3)c2C)c(Br)c1, the TGI rises from 47.7 µM to over 100 µM.

Cc1cccc(C)c1NC(=O)CCC(=O)NNc1nnc(C)n1N and CCOC(=O)[C@]12C3C=CC(C3)C1C(=O)C1OC12 (some centres not stated) cannot be ordered by TGI: over 100 µM for the first, over 100 µM for the second.

tested on: 786-0 renal; assay: NCI-60 cell line screen, 48 h

Compared with [O-][n+]1c(-c2ccccc2)oc2ccccc21, Cc1ccc(N=Nc2c(C)nn(-c3ccccc3)c2C)c(Br)c1 is higher in TGI: 62.4 µM for the first, over 100 µM for the second.

Cc1cccc(C)c1NC(=O)CCC(=O)NNc1nnc(C)n1N and CCOC(=O)[C@]12C3C=CC(C3)C1C(=O)C1OC12 (some centres not stated) cannot be ordered by TGI: over 100 µM for the first, over 100 µM for the second.

tested on: MALME-3M melanoma; assay: NCI-60 cell line screen, 48 h

Going from [O-][n+]1c(-c2ccccc2)oc2ccccc21 to Cc1ccc(N=Nc2c(C)nn(-c3ccccc3)c2C)c(Br)c1, the TGI rises from 28.1 µM to over 100 µM.

Cc1cccc(C)c1NC(=O)CCC(=O)NNc1nnc(C)n1N and CCOC(=O)[C@]12C3C=CC(C3)C1C(=O)C1OC12 (some centres not stated) cannot be ordered by TGI: over 100 µM for the first, over 100 µM for the second.

tested on: HOP-18 NSCLC; assay: NCI-60 cell line screen, 48 h

First: [O-][n+]1c(-c2ccccc2)oc2ccccc21
Second: Cc1ccc(N=Nc2c(C)nn(-c3ccccc3)c2C)c(Br)c1
The TGI of the first is lower: 20.1 µM for the first, over 100 µM for the second.

Cc1cccc(C)c1NC(=O)CCC(=O)NNc1nnc(C)n1N and CCOC(=O)[C@]12C3C=CC(C3)C1C(=O)C1OC12 (some centres not stated) cannot be ordered by TGI: over 100 µM for the first, over 100 µM for the second.

tested on: NCI-H460 lung; assay: NCI-60 cell line screen, 48 h

Going from [O-][n+]1c(-c2ccccc2)oc2ccccc21 to Cc1cccc(C)c1NC(=O)CCC(=O)NNc1nnc(C)n1N, the TGI rises from 20.2 µM to over 100 µM.
